Columns and labels:
[1] = system: mouse tibiae; assay: Tibiae μCT to assess systemic side effects of local PTH release, Example 2; type: in vivo, C57BL/6 mice; details: compared to the BSA control group
Procedure: (§1) To determine the optimal PTH release mode to ensure desired PTH anabolic action in bone regeneration, the pulsatile PTH delivery device and the continuous PTH delivery device were compared in identical experimental set ups to access the outcomes of bone regeneration in a critical size (2.3 mm in diameter) round defect created in the mouse skull. The BSA loaded pulsatile devices were used as vehicle controls. All animal procedures were performed following a protocol approved by the University of Michigan Institutional Animal Care and Use Committee. C57BL/6 mice were randomly divided into four groups. Animals were anaesthetized with isoflurane (2%) inhalation. The 2.3 mm diameter craniotomy defect centered on the parietal calvarial bone was created using a trephine. A blank nanofibrous scaffold was placed to fill in the defect and a delivery device (pulsatile PTH, continuous PTH, or BSA control device) was placed adjacent to the scaffold with the opening side facing the scaffold (see FIG. 24).
Rather, PTH was subcutaneously injected for 3 weeks (21 days) using a standard systemic administration dose (40 μg/kg/d). […]
Mouse tibiae from the different groups were examined using μCT to assess the potential systemic side effects of the local PTH releases. […] A region of 0.75 mm right below the growth plate was analyzed to quantify the trabecular bone volume.

[2] = in vivo; cited from earlier work
[3] = system: procollagen I N-terminal propeptide (P1NP); assay: Serum P1NP ELISA three weeks after implantation, Example 2; type: in vivo, C57BL/6 mice
Procedure: (§2) Three weeks after implantation, the mice were anaesthetized with inhalation of isoflurane (2%) and blood was collected by tail blood draw. After centrifuge for 10 minutes at 13000 rpm, serum was separated and kept frozen until biochemical assays were performed. Serum procollagen I N-terminal propeptide (P1NP) (MyBioSource, Inc) and TRAP5b (Novatein Biosciences, Mass.) ELISA immunoassays were performed following the manufacturer's protocols. The ELISA analyses were employed to evaluate the levels of bone biomarkers.

[4] = system: TRAP5b; assay: Serum TRAP5b ELISA three weeks after implantation, Example 2; type: in vivo, C57BL/6 mice
Procedure: as §2

[5] = system: mouse calvarial defect; assay: Mouse calvarial critical size defect with nanofibrous scaffold: μCT of new bone 8 weeks after implantation; type: in vivo, C57BL/6 mice; details: compared to the control BSA group; μCT and histomorphometry
Procedure: as §1, with “24). […]” for “24).”
For the calvarial bone analysis, the skulls were scanned with a fixed global threshold of 20%. 3D reconstruction of the skull and quantitative analyses were performed. A 2.3 mm-round region of interest centered on the defect was determined and the bone volume (mm^3) (BV) and bone mineral density (BMD) in the area were measured using manufacturer's software (Scanco μCT 100).

Substance: PTH (1-34)
- tibia trabecular bone volume [1]: significantly increased
- half-life [2]: 8 min
- serum P1NP level (bone formation marker) [3]: significantly elevated
- serum TRAP5b level (bone resorption marker) [4]: significantly elevated
- bone growth in the nanofibrous scaffold [5]: significantly promoted
